The results in this text go back to publication PMC9218946, “Identification of a Subtype-Selective Allosteric Inhibitor of GluN1/GluN3 NMDA Receptors” (Frontiers in Pharmacology, 2022).

One assay concerns KA receptors. Put plainly: Whole-cell patch-clamp, KA-induced currents in acutely isolated hippocampal neurons. The assay is classed as cell-based, rat. As to conditions: 10 μM WZB117. As to the method:
(§1) Hippocampal neurons were obtained from Sprague-Dawley rats (aged P7-14). Briefly, the isolated hippocampal tissues were cut into approximately […] slices along the sagittal plane and were digested with 3 mg/ml proteinase (Sigma-Aldrich) at 32°C for 8 min. Then 1 mg/ml bovine serum albumin (Sangon Biotech) and 1 mg/ml trypsin inhibitor (Sigma-Aldrich) were used to stop the digestion. A few slices of the hippocampus were gently blown into single cells with the dissecting solution, then transferred to a dish and left to rest for 20 min before experiments. The dishes were preprocessed. Essentially, the bottom of the dish was covered with discarded cell suspension the day before the experiment and was washed and dried the next day, which prevented the neurons from sticking to the bottom too tightly. The dissecting solution contained (in mM): 82 Na2SO4, 30 K2SO4, 5 MgCl2, 1 Na pyruvate, 10 HEPES, and 20 glucose. The pH was adjusted to 7.2 using NaOH ([Xie et al., 2020]).
(§2) Whole-cell patch-clamp recordings were performed at room temperature (22–25°C) using an EPC-10 amplifier and Patch Master Software (HEKA). Pipettes were pulled from borosilicate glass capillaries (World Precision Instruments), and the resistances were 3–5 MΩ when filled with the intracellular solution. […]

The target in assay [1] is T1, GluN1/GluN3A receptors (UniProt Q05586+Q9R1M7). Put plainly: TEVC recording in Xenopus oocytes expressing GluN1/GluN3A. The assay is classed as cell-based. Set-up: expressed in transfected cells; host or cells: Xenopus oocytes (cDNA/cRNA injection). The conditions noted are these: 30 μM WZB117, Xenopus oocytes. As to the method:
(§3) Two-electrode voltage-clamp (TEVC) recordings were performed on Xenopus oocytes expressing various subtypes of recombinant NMDARs. Each oocyte was injected with a mixture of 0.5–1.0 ng cDNAs or cRNAs encoding wild-type (WT) or mutant GluN1 (GluN1-1a or GluN1-4a) and GluN2 (2A-2D) or GluN3 (3A-3B) at a ratio of 1:1. The mutant GluN1-4a ^F484A/T518L was injected together with GluN3B to boost the currents of GluN1/GluN3B receptors, and WT GluN1-1a was used unless otherwise stated. The cRNAs of GluN1-4a, GluN3A and GluN3B were transcribed from corresponding DNAs using the mMESSAGE mMACHINE T7 Ultra kit (Life Technologies) according to the manufacturer’s instructions, and the others not specified were cDNAs. TEVC recording was performed 24–72 h post injection in extracellular solution containing (in mM): 100 NaCl, 0.3 BaCl2, 2.5 KCl, 0.01 DTPA and 5 HEPES, and the pH was adjusted to 7.3 using NaOH. All recordings were carried out at a holding potential of −60 mV.

Assay [2] relates to GluN1/GluN2 (2A-2D) receptors. Put plainly: TEVC recording in Xenopus oocytes expressing GluN1/GluN2 (2A-2D). The assay is classed as cell-based. As to conditions: 30 μM WZB117; 100 μM glycine and 100 μM glutamate coapplied. On the procedure:
as §3

Assay [3] has as its target T1, GluN1/GluN3A receptors. Briefly: Whole-cell patch-clamp recording on GluN1/GluN3A Flp-in T-REx 293 stable cell lines. The assay is classed as cell-based, human GluN1-1a, rat GluN3A. Set-up: expressed in transfected cells. On the technique in general: In patch-clamp work, channel activity is measured electrically.
The next assay relates to AMPA receptors. Put plainly: Whole-cell patch-clamp, AMPA-induced currents in acutely isolated hippocampal neurons. The assay is classed as cell-based, rat. The conditions noted are these: 10 μM WZB117. On the procedure:
as §1, §2

Assay [4] concerns the target T2, native GluN1/GluN3 receptors (Rattus norvegicus, UniProt P35439+Q9R1M7).
T2 construct: endogenous in cells; host or cells: acutely isolated hippocampal neurons, Sprague-Dawley rats P7-14
Briefly: Whole-cell patch-clamp, glycine-induced currents after CGP-78608 in acutely isolated hippocampal neurons. The assay is classed as cell-based. The conditions noted are these: 10 μM WZB117; glycine-induced currents after incubation with CGP-78608. As to the method: as §1, §2

T1 sequence (Q9R1M7 24-1135, other chains not shown): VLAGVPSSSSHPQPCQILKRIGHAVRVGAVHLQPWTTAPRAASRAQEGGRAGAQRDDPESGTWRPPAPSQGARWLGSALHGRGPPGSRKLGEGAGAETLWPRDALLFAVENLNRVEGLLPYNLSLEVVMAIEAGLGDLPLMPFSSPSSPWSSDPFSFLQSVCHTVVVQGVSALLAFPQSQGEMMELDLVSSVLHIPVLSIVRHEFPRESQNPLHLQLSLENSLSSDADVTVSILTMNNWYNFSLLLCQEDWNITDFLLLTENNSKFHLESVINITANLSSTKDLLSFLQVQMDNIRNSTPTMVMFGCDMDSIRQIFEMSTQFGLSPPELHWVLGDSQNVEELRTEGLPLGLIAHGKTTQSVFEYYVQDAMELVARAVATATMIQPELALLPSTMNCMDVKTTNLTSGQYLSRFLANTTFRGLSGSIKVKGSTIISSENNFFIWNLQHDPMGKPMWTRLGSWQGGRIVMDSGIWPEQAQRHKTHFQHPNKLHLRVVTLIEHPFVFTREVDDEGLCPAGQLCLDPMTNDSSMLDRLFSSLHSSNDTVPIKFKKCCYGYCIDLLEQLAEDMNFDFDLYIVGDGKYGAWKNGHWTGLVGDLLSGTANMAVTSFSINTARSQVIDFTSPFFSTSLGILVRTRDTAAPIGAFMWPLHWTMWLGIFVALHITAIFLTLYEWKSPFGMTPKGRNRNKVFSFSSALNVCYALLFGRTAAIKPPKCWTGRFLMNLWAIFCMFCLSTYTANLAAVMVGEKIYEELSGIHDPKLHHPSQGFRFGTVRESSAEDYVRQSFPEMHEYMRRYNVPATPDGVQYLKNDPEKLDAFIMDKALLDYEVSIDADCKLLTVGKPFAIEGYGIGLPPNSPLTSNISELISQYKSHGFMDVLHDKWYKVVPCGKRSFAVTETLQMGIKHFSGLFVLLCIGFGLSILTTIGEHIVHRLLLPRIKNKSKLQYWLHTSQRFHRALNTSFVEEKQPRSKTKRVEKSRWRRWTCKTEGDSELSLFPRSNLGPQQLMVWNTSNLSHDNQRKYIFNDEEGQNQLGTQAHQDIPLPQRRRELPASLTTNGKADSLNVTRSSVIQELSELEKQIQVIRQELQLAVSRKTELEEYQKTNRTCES
T2 sequence (Q9R1M7 24-1135, other chains not shown): as above

By IC50 is commonly meant the concentration needed to halve the response being measured. The low end stands for higher potency, the high end for lower potency. With `O=C(Oc1cccc(F)c1OC(=O)c1cccc(O)c1)c1cccc(O)c1` [WZB117, 3-fluoro-1,2-phenylene bis(3-hydroxybenzoate)], the “effect on KA-induced currents” value in the assay with KA receptors is on record as “little effect”. In addition, the inhibition of currents result on GluN1/GluN3A receptors [1] is listed as “potently suppressed”; in assay [2], “relatively weak inhibition”. Further, at GluN1/GluN3A receptors [3] (3 μM WZB117, +40 mV and −60 mV), the “voltage-dependence of inhibition activity” value is “no significant change”. For the same compound, the IC50 at GluN1/GluN3A receptors [3] (pH 6.9) turned out to be 1.27 ± 0.39 µM; against GluN1/GluN3A receptors [3] (pH 8.3) it was 1.09 ± 0.22 µM. Further, the “effect on AMPA-induced currents” value with AMPA receptors is on record as “almost ineffective”. For the same compound, the “I drug/I control” value in assay [4] is reported as 0.18 ± 0.03.
